For 2 compounds, IC50 results are on record in patent publication US20120309796A1, “BENZOCYCLOHEPTENE ACETIC ACIDS” (priority 2011, published 2012).

Each structure is given as a SMILES string.

The target of the assay is T1, human CRTH2 (Homo sapiens, UniProt Q9Y5Y4).
T1 sequence (Q9Y5Y4 1-395): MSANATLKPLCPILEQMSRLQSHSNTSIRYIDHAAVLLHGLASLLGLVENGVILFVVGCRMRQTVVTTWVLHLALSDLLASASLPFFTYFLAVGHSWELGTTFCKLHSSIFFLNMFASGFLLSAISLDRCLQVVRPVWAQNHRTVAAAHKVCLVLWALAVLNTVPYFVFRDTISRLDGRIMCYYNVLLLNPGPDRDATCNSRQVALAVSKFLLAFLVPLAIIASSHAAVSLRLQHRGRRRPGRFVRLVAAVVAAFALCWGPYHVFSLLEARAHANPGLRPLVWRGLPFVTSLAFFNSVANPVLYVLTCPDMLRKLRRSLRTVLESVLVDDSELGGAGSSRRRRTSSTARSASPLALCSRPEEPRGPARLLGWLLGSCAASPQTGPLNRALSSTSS
The assay can be described thus: Calcium Flux Assay Using Fluorometric Imaging Plate Reader (FLIPR). The arrangement: expressed in transfected cells; host or cells: CHO-K1 previously transfected with G-alpha 16. Format: cell-based. The following applies: CHO-K1 cells with G-alpha 16 and human CRTH2; inhibition of DK-PGD2 ligand-induced Ca2+ flux. As for the experimental part: CHO-K1 cells previously transfected with G-alpha 16 were subsequently transfected with the human CRTH2 receptor and the neomycin resistance gene. Following selection in 800 μg/mL G418 (geneticin), individual clones were assayed for their receptor expression based on staining with an anti human CRTH2 IgG, followed by assaying for their response to 13,14-dihydro-15-keto Prostaglandin D2 (DK-PDG2) (ligand) in the Ca^2+ Flux assay. Positive clones were then cloned by limiting dilution cloning. The transfected cells were cultured in Ham's F-12 medium supplemented with 10% fetal bovine serum, 2 mM glutamine, 100 U/mL penicillin/100 μg/mL streptomycin, 200 μg/mL hygromycin B, and 800 μg/mL G418 (geneticin). Cells were harvested with trypsin-EDTA (trypsin-ethylenediaminetetraacetic acid) and counted using ViaCount® reagent (from Guava Technologies, Inc. which contains two DNA-binding dyes that enable the reagent user to distinguish between viable and non-viable cells). The cell suspension volume was adjusted to 2.5×10^5 cells/mL with complete growth media. Aliquots of 50 μL were dispensed into BD Falcon™ 384 well black/clear microplates (from BD Biosciences, a division of Becton, Dickinson and Company) and the microplates were placed in a 37° C. CO2 incubator overnight. The following day, the microplates were used in the assay.
Loading Buffer containing dye (from the FLIPR® Calcium 3 Assay Kit from Molecular Devices, a division of MDS Analytical Technologies and MDS Inc.) was prepared by dissolving the contents of one bottle into 200 mL Hank's Balanced Salt Solution containing 20 mM HEPES (4-(2-hydroxyethyl)-1-piperazineethanesulfonic acid) and 2.5 mM probenecid. Growth media was removed from the cell plates and 25 μL of Hank's Balanced Salt Solution (HBSS) containing 20 mM HEPES, 0.05% BSA and 2.5 mM probenecid was added to each well followed by 25 μL of diluted dye using a Multidrop dispenser. The plates were then incubated for 1 hour at 37° C.
During the incubation, test compound plates were prepared by adding 90 μL of HBSS/20 mM HEPES/0.005% BSA buffer to the 2 μL of serial diluted compounds. To prepare serial diluted compounds, 20 mM stocks of compounds were dissolved in 100% DMSO. The compound dilution plate was set up as follows: well #1 received 5 μL of compound plus 10 μL of DMSO. Wells 2-10 received 10 μL of DMSO. 5 μL was mixed and transferred from well #1 into well #2. 1:3 serial dilutions were continued out 10 steps. 2 μl of diluted compound was transferred into duplicate wells of a 384 well “assay plate” and then 90 μL of buffer was added.
After incubation, both the cell and “assay plate” plates were brought to the fluorometric imaging plate reader (FLIPR®) and 20 μL of the diluted compounds were transferred to the cell plates by the FLIPR®. Plates were then incubated for 1 hour at room temperature. After the 1 hour incubation, plates were returned to the FLIPR® and 20 μL of 4.5× concentrated ligand was added to the cell plates. During the assay, fluorescence readings were taken simultaneously from all 384 wells of the cell plate every 1.5 seconds. Five readings were taken to establish a stable baseline, then 20 μL of sample was rapidly (30 μL/sec) and simultaneously added to each well of the cell plate. The fluorescence was continuously monitored before, during and after sample addition for a total elapsed time of 100 seconds. Responses (increase in peak fluorescence) in each well following agonist addition were determined. The initial fluorescence reading from each well, prior to ligand stimulation, was used as a zero baseline value for the data from that well. The responses were expressed as % inhibition of the buffer control. […]
(In general: Calcium flux is commonly read through the fluorescence of an indicator in the cells.)

One may read the IC50 as the concentration that inhibits the measured activity by half. Turning to `O=C(O)COc1cccc2c1CCCCC2NS(=O)(=O)c1cc(C(F)(F)F)cc(C(F)(F)F)c1` (centres unmarked) [Example 1, [5-(3,5-Bis-trifluoromethyl-benzenesulfonylamino)-6,7,8,9-tetrahydro-5H-benzocyclohepten-1-yloxy]-acetic acid], the IC50 worked out at 0.114 µM.
The result for `O=C(O)COc1cccc2c1CCCCC2NS(=O)(=O)c1cc(C(F)(F)F)cc(C(F)(F)F)c1` (single isomer, unassigned) [Example 46, [5-(3,5-Bis-trifluoromethyl-benzenesulfonylamino)-6,7,8,9-tetrahydro-5H-benzocyclohepten-1-yloxy]-acetic acid] reads 0.188 µM.
